From patent US9055743B2, “Alpha, beta-unsaturated imines” (BAYER INTELLECTUAL PROPERTY GMBH, priority 2010, dated 2015) come the findings set out here.

Each structure is given as a SMILES string.

Common to all, as to format: in vivo
For one assay, the system named is Boophilus microplus. In words: Boophilus microplus test (BOOPMI injection). Particulars: for activity (100% = none of the ticks has laid any fertile eggs): 20 μg/animal, injection into the abdomen, after 7 days. In a few lines:
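Ticks injected in the abdomen with compound in DMSO, then held in a climatized room. Effect scored after 7 days as % reduction in fertile egg laying, 100% meaning no fertile eggs.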

In assay [1] the test system is Boophilus microplus strain Parkhurst, SP-resistant. Description: Boophilus microplus test (DIP). Particulars: 100 ppm, after 7 days. The method, then: Boophilus microplus Test (DIP) Test Animals: Adult Fat Females of the Boophilus microplus Strain Parkhurst—SP-Resistant) Solvent: Dimethyl Sulphoxide
10 mg of active compound are dissolved in 0.5 ml of dimethyl sulphoxide. To produce a suitable formulation, the active compound solution is diluted with water to the particular desired concentration.
This active compound preparation is pipetted into tubes. 8-10 ticks are transferred into a further tube provided with holes. The tube is dipped into the active compound preparation, with all the ticks being wetted completely. After the liquid has run off, the ticks are transferred to filter discs in plastic dishes and kept in a climatized room. After 7 days, the activity is checked for deposition of fertile eggs. Eggs whose fertility is not visible from the outside are kept in glass tubes in a climatized cupboard until the larvae have hatched. An activity of 100% means that no tick has laid fertile eggs.

For a further assay, the system named is Musca domestica. Description: Musca domestica test (MUSCDO). The following applies: 100 ppm, after 2 days. As to the method:
Musca domestica Test (MUSCDO)
Solvent: Dimethyl Sulphoxide
To produce a suitable preparation of active compound, 10 mg of active compound are mixed with 0.5 ml of dimethyl sulphoxide and the concentrate is diluted with water to the desired concentration. Vessels containing a sponge treated with the active compound preparation of the desired concentration are populated with adult Musca domestica.
After 2 days, the kill in % is determined 100% means that all flies have been killed; 0% means that none of the flies have been killed.

Assay [2] has as its system green peach aphid (Myzus persicae). In words: Myzus test (MYZUPE spray treatment). The following applies: 500 g/ha, spray, after 6 days; for pest or weed control at 500 g/ha: Myzus persicae, 144 h, read-out: activity (aphids killed). The method in brief: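 Chinese cabbage leaf discs infested with all aphid stages were sprayed with compound in acetone/DMF with emulsifier, diluted in emulsifier-containing water. Mortality in % assessed after 6 days (100% = all aphids killed).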

The test system of assay [3] is bed bugs of the species Cimex lectularius. In words: whole plant or invertebrate. The following applies: for mortality at 100 mg/m2: Cimex lectularius, read-out: activity (mortality in %). As to the method: Cimex Test (CIMXLE Surface Treatment)
To produce a suitable preparation of the active compound, the active compound is dissolved in acetone (2 mg/ml). The active compound preparation is pipetted onto a glazed tile and, after drying, adult bed bugs of the species Cimex lectularius are placed onto the treated tile. The exposition time is 30 minutes.
Two hours after contact to the treated surface, the knock-down proportion of the test animals in % is determined
24 hours after contact to the treated surface, the mortality in % is determined. Here, 100% means that all bed bugs have been killed; 0% means that none of the bed bugs have been killed.

In assay [4] the test system is brown dog ticks (Rhipicephalus sanguineus, fully sensitive laboratory strain). Description: Contact test against ticks in vitro (RHIPSA contact). The following applies: active compound concentration 4 g/ha. The method, then:
Contact Test Against Ticks In Vitro (RHIPSA Contact)
An amount of 0.9 mg of active compound is weighed out, and 1 ml of acetone is added.
Of this acetone solution, either 250 μl are transferred directly into roll-necked test tubes or an aliquot is diluted with 4 parts of acetone 1:5. For its part, 250 μl of this dilution are pipetted into roll-necked test tubes, or the dilution is diluted further, etc., until the desired number of dilution steps is reached.
The roll-necked test tubes containing the solution of the active compound in acetone are immediately coated in a fume cupboard by 2 h of swing rotation at 30 rpm. After evaporation of the solvent, the active compound contained in the acetone gives, at the highest concentration tested, an active compound content of 500 g/ha (or […]) on the surface of the test tube.
5-10 Adult brown dog ticks (Rhipicephalus sanguineus, fully sensitive laboratory strain) are transferred into the test tubes prepared in this manner, and the test tubes are closed with a plastic roll-necked lid provided with fine holes.
The test tubes are stored vertically at room temperature and humidity for 24 or 48 h in the dark. After 24 and 48 h, the activity of the active compound applied is determined by comparison with an acetone-treated control. […]

As a reminder, the mortality is the percentage killed. As to `Cc1ccc(N=C2C(=CSc3ccc(F)cc3)CCc3cc(F)ccc32)cc1` [Example 1-16], in the assay on Boophilus microplus, the “activity (100% = none of the ticks has laid any fertile eggs)” value stood at 100%. The “Kill rate in % after 7 days” value in the assay with Boophilus microplus (active compound concentration 0.16 μg/animal) was 90%. In addition, the “activity (100% = no tick has laid fertile eggs)” value in assay [1] turned out to be 100%. The “activity (kill in %)” value with Musca domestica is reported as 80%. The pest or weed control at 500 g/ha in assay [2] is 100%. The mortality at 100 mg/m2 in assay [3] was determined as 90%.
`Cc1ccc(N=C2C(=CSc3ccc(F)cc3)CSc3ccccc32)cc1` [Example 1-35]: in the assay on Boophilus microplus, the “activity (100% = none of the ticks has laid any fertile eggs)” value is recorded as 100%. Besides, the “Kill rate in % after 2 days” value in assay [4] is reported as 100%. The pest or weed control at 500 g/ha in assay [2] is 100%.
Take `Cc1ccc(N=C2C(=CSc3ccc(F)cc3)C(C)c3ccccc32)cc1` (stereo not drawn) [Example 1-57]: the “activity (100% = none of the ticks has laid any fertile eggs)” value in the assay on Boophilus microplus turned out to be 100%. In addition, the “activity (kill in %)” value in the assay with Musca domestica was 85%. Moreover, the pest or weed control at 500 g/ha in assay [2] amounted to 100%.
Take `Cc1ccc(N=C2C(=CSc3ccc(F)cc3)CCc3ccccc32)cc1` [Example 1-9]: in the assay on Boophilus microplus, the “activity (100% = none of the ticks has laid any fertile eggs)” value turned out to be 100%. Further, in the assay with Musca domestica, the “activity (kill in %)” value came out at 90%. Further, the pest or weed control at 500 g/ha in assay [2] came to 100%. Besides, the knock-down activity in assay [3] (100 mg/m^2, two hours after contact, exposition 30 minutes) was 80%. For the same compound, the mortality at 100 mg/m2 in assay [3] was 100%.
Take `Cc1ccc(N=C2C(=CSc3ccc(C)cc3)CCc3ccccc32)cc1` [Example 1-28]: in the assay on Boophilus microplus, the “activity (100% = none of the ticks has laid any fertile eggs)” value is reported as 100%. Moreover, in assay [1], the “activity (100% = no tick has laid fertile eggs)” value is listed as 100%. In the assay with Musca domestica, the “activity (kill in %)” value came out at 80%. In addition, the “activity (aphids killed)” value in assay [2] is given as 90%.
